Data taken from patent US11542259B2, “Compounds for the treatment of kinase-dependent disorders” (Exelixis, Inc., priority 2018, dated 2023).

Key:
[1] = target: Human Met (residues R974-S1390 with A1209G and V1290L) (Homo sapiens, UniProt P08581); experiment: Human Met kinase assay (33P radiometric, KinaseProfiler); format: biochemical; conditions: 10 μM ATP, read-out: c-Met IC50
[2] = target: AXL (Homo sapiens (Human), UniProt P30530); experiment: AXL autophosphorylation ELISA in A-172 cells; format: cell-based; conditions: cellular, Gas6 stimulated
Procedure, shortened: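 Serum-starved (24 h) A-172 glioblastoma cells pretreated 1 h with compounds (8-point curve, 0.3% DMSO), then stimulated 15 min with 1 μg/mL Gas6. Lysate phospho-AXL measured by sandwich ELISA against a phospho-AXL standard; IC50 from 4-parameter logistic fit between DMSO and reference-inhibitor controls.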

AXL, sequence (P30530 26-894): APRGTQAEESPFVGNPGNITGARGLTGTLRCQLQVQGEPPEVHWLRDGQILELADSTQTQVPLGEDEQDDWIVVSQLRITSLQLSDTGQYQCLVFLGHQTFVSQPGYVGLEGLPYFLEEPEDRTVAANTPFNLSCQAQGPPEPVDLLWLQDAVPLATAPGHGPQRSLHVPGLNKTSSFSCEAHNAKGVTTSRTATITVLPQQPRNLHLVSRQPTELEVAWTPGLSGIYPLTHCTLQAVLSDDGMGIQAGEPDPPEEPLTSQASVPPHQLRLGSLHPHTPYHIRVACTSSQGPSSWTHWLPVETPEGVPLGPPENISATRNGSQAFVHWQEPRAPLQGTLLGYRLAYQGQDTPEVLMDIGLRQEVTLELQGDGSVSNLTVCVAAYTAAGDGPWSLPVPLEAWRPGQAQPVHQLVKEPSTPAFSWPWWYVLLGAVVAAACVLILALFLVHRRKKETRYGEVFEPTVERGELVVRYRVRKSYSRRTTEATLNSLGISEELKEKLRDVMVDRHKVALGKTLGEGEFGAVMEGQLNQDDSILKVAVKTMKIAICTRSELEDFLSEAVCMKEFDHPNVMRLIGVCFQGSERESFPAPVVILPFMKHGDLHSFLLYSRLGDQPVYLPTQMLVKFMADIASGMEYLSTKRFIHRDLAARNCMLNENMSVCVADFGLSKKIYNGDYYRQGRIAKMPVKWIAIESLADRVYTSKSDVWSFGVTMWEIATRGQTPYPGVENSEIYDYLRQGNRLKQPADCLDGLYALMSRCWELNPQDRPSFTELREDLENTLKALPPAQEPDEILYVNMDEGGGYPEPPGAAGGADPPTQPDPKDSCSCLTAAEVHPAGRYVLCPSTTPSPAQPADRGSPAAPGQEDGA

| IC50 [1] [nM] | IC50 [2] [nM] | Compound |
| --- | --- | --- |
| 10 to 100 | 100 to 300 | COc1cc2nccc(Oc3ccc(NC(=O)C4(C(=O)Nc5ccc(F)cc5)CC4)cc3)c2cc1-c1c(C)noc1C [Compound 184, 1-N-[4-[6-(3,5-dimethyl-1,2-oxazol-4-yl)-7-methoxyquinolin-4-yl]oxyphenyl]-1-N′-(4-fluorophenyl)cyclopropane-1,1-dicarboxamide] |
| 10 to 100 | ≤ 10 | COc1cc2nccc(Oc3ccc(NC(=O)C4(C(=O)Nc5ccc(F)cc5)CC4)cc3)c2cc1-c1ccc(C)o1 [Compound 180, 1-N′-(4-fluorophenyl)-1-N-[4-[7-methoxy-6-(5-methylfuran-2-yl)quinolin-4-yl]oxyphenyl]cyclopropane-1,1-dicarboxamide] |
| 10 to 100 | 10 to 100 | COc1cc2nccc(Oc3ccc(NC(=O)C4(C(=O)Nc5ccc(F)cc5)CC4)cc3)c2cc1N1CCC1 [Compound 198, 1-N-[4-[6-(azetidin-1-yl)-7-methoxyquinolin-4-yl]oxyphenyl]-1-N′-(4-fluorophenyl)cyclopropane-1,1-dicarboxamide] |
| 10 to 100 | 10 to 100 | COc1cc2nccc(Oc3ccc(NC(=O)C4(C(=O)Nc5ccc(F)cc5)CC4)cc3)c2cc1C(=O)N1CCC1 [Compound 15, 1-N-[4-[6-(azetidine-1-carbonyl)-7-methoxyquinolin-4-yl]oxyphenyl]-1-N′-(4-fluorophenyl)cyclopropane-1,1-dicarboxamide] |
| ≤ 10 | 10 to 100 | COC(=O)c1cc2nccc(Oc3ccc(NC(=O)C4(C(=O)Nc5ccc(F)cc5)CC4)cc3)c2cc1OC [Compound 150, methyl 4-[4-[[1-[(4-fluorophenyl)carbamoyl]cyclopropanecarbonyl]amino]phenoxy]-6-methoxyquinoline-7-carboxylate] |
| ≤ 10 | ≤ 10 | COc1cc2nccc(Oc3ccc(NC(=O)C4(C(=O)Nc5ccc(F)cc5)CC4)cc3)c2cc1-c1ccc[nH]1 [Compound 188, 1-N′-(4-fluorophenyl)-1-N-[4-[7-methoxy-6-(1H-pyrrol-2-yl)quinolin-4-yl]oxyphenyl]cyclopropane-1,1-dicarboxamide] |
| ≤ 10 | ≤ 10 | COc1cc2nccc(Oc3ccc(NC(=O)C4(C(=O)Nc5ccc(F)cc5)CC4)cc3)c2cc1-c1cn[nH]c1 [Compound 186, 1-N′-(4-fluorophenyl)-1-N-[4-[7-methoxy-6-(1H-pyrazol-4-yl)quinolin-4-yl]oxyphenyl]cyclopropane-1,1-dicarboxamide] |
| ≤ 10 | 10 to 100 | COc1cc2nccc(Oc3ccc(NC(=O)C4(C(=O)Nc5ccc(F)cc5)CC4)cc3)c2cc1C(=O)NC1COC1 [Compound 13, 1-N′-(4-fluorophenyl)-1-N-[4-[7-methoxy-6-(oxetan-3-ylcarbamoyl)quinolin-4-yl]oxyphenyl]cyclopropane-1,1-dicarboxamide] |
| ≤ 10 | 100 to 300 | COc1cc2nccc(Oc3ccc(NC(=O)C4(C(=O)Nc5ccc(F)cc5)CC4)cc3)c2cc1C1(O)CNC1 [Compound 197, 1-N′-(4-fluorophenyl)-1-N-[4-[6-(3-hydroxyazetidin-3-yl)-7-methoxyquinolin-4-yl]oxyphenyl]cyclopropane-1,1-dicarboxamide] |
| 10 to 100 | > 300 | COc1cc2nccc(Oc3ccc(NC(=O)C4(C(=O)Nc5ccc(F)cc5)CC4)cc3Cl)c2cc1C(=O)O [Compound 130, 4-[2-chloro-4-[[1-[(4-fluorophenyl)carbamoyl]cyclopropanecarbonyl]amino]phenoxy]-7-methoxyquinoline-6-carboxylic acid] |
| 10 to 100 | 100 to 300 | CN1CC(NC(=O)c2ccc3nccc(Oc4ccc(NC(=O)C5(C(=O)Nc6ccc(F)cc6)CC5)cc4)c3c2)C1 [Compound 60, 1-N′-(4-fluorophenyl)-1-N-[4-[6-[(1-methylazetidin-3-yl)carbamoyl]quinolin-4-yl]oxyphenyl]cyclopropane-1,1-dicarboxamide] |
